Experimental findings from ChEMBL document CHEMBL1201862, “PubChem BioAssay data set” (2004) are described below.

Experiment in all cases: NCI tumour cell line growth inhibition, 48 h
In assay [1] the test system is 786-0.
The subject of assay [2] is ACHN.
In assay [3] the test system is HCT-116.
Assay [4] concerns HL-60.
Assay [5] has as its system IGROV-1.
In assay [6] the test system is M14.
The test system of assay [7] is NCI-H226.
The subject of assay [8] is NCI-H460.
Assay [9] has as its system NCI-H522.
In assay [10] the test system is OVCAR-3.
Assay [11] concerns SF-268.
Assay [12] concerns SK-OV-3.
Assay [13] deals with UACC-257.
Assay [14] has as its system UACC-62.
The test system of assay [15] is EKVX.
Assay [16] deals with MOLT-4.
Assay [17] has as its system UO-31.

Structures are written as SMILES.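 Five concentrations, 48 hours, 96-well plates. GI50 is the concentration that inhibits growth by half.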 The source made the active and inactive calls. Cut-off read from the data, not from the text of the source: active = GI50 up to about 1.1 µM and inactive = higher.

`Clc1ccc(C[P+](c2ccccc2)(c2ccccc2)c2ccccc2)cc1Cl`: the GI50 in assay [1] was 4.85 µM (inactive); in assay [2], 13.1 µM (inactive); in [3], 1.93 µM (inactive); in [4], 1.03 µM (active); in assay [5], 2.51 µM (inactive); in assay [6], 2.6 µM (inactive). The GI50 is 2.8 µM (inactive) in [7]; 2.34 µM (inactive) in assay [8]; 1.89 µM (inactive) in assay [9]; 2.06 µM (inactive) in assay [10]; 3.22 µM (inactive) in [11]; 7.35 µM (inactive) in [12]. Also, the GI50 in [13] was 2.14 µM (inactive); in assay [14], 1.49 µM (inactive).

As to `CC1=C(C(=O)NCc2ccccc2)C(c2ccc(C3C(C(=O)NCc4ccccc4)=C(C)NC(C)=C3C(=O)NCc3ccccc3)cc2)C(C(=O)NCc2ccccc2)=C(C)N1`, the GI50 in assay [1] was 15.6 µM (inactive); in [2] it was 15.6 µM (inactive); in assay [15], 14.9 µM (inactive); in assay [3] it was 3.02 µM (inactive); in assay [4], 6.27 µM (inactive); in [5] it was 18 µM (inactive). The GI50 in assay [6] is 11.8 µM (inactive); in [16] it was 5.75 µM (inactive); in assay [7], 17.5 µM (inactive); in assay [8], 28.6 µM (inactive); in assay [9] it was 3.41 µM (inactive); in assay [10], 10.4 µM (inactive). Besides, the GI50 in [11] was 15.1 µM (inactive); in assay [13], 15 µM (inactive); in assay [14], 7.91 µM (inactive); in assay [17], 21.2 µM (inactive).

For `Cc1cc(N(CCC#N)CCC#N)ccc1/C=C1/N=C(c2ccccc2)N(N)C1=O`, the GI50 is 37.6 µM (inactive) in assay [1]; > 100 µM (inactive) in [2]; > 100 µM (inactive) in assay [15]; > 100 µM (inactive) in assay [3]; 27 µM (inactive) in [4]; 79.8 µM (inactive) in [5]. The GI50 in assay [6] was > 100 µM (inactive); in [16], > 100 µM (inactive); in assay [7], > 100 µM (inactive); in [9], 26 µM (inactive); in [10], > 100 µM (inactive); in assay [11] it was 60.1 µM (inactive). Further, the GI50 was > 100 µM (inactive) in [12], > 100 µM (inactive) in [13], 99.8 µM (inactive) in assay [14] and > 100 µM (inactive) in assay [17].

Consider `CC(Oc1ccc(OCC2CCCCC2)cc1)C(=O)N(CCO)CCO` (stereo not drawn), for which the GI50 in assay [1], in [2], in [3], in assay [4], in assay [5] and in assay [6] was > 100 µM (inactive) each time. Moreover, the GI50 in [16], in [7], in [8], in assay [9], in assay [10] and in assay [11] was > 100 µM (inactive) throughout. In addition, the GI50 in assay [12], in assay [13], in assay [14] and in [17] was > 100 µM (inactive) in each case.

`COc1ccc(-c2onc(-c3ccc([N+](=O)[O-])cc3)c2C2=NCCCN2)cc1`: the GI50 in [1] is > 100 µM (inactive); in assay [2] it was > 100 µM (inactive); in [15] it was > 100 µM (inactive); in [3], 38.9 µM (inactive); in assay [4], 36.9 µM (inactive); in assay [5] it was > 100 µM (inactive). Moreover, the GI50 in [6] is 38.8 µM (inactive); in assay [16], 76.2 µM (inactive); in assay [7], 38.8 µM (inactive); in assay [8], 51.8 µM (inactive); in [9], 51.3 µM (inactive); in assay [10] it was 26.5 µM (inactive). Moreover, the GI50 was > 100 µM (inactive) in assay [11], 87.7 µM (inactive) in [13], > 100 µM (inactive) in [14] and 18.4 µM (inactive) in [17].
